“And” between values parts separate entries of the source, which are not always exact repeats. Identical values can stand only once.
Assay: Photophysical properties in aqueous buffer (UV-visible, fluorescence, quantum yield, extinction coefficient)
Type: physicochemical
Details: for λAbs (max) / λEm (max): aqueous buffer pH 7.2; for Extinction Coefficient (ε) / Quantum Yield (Φ): 50 nM to 250 nM probe; for fluorescence turn-on in the presence of zinc: aqueous buffered solutions; for turn-on ratio / increase in brightness in response to zinc: holo vs apo
Procedure: Aqueous solutions were prepared by using de-ionized water with resistivity […], obtained using a Milli-Q water purification system. In order to properly compare the photophysical properties of ZincBY-2, ZincBY-3, and ZincBY-4 to ZincBY-1, the photophysical properties of ZincBY-1 we remeasured. […] Stock solutions of ZincBY-1, ZincBY-2, ZincBY-3, and ZincBY-4 were prepared at concentrations of 5 mM and stored at −20° C. in aliquots that were used immediately after thawing for each experiment. Unless otherwise stated, all spectroscopic methods were conducted in aqueous buffer containing 50 mM HEPES (pH 7.2) and 0.1 M KNO3. UV-visible spectra were acquired on a PerkinElmer Lambda 650 UV/Vis spectrophotometer using quartz cuvettes from Starna (1 cm path length, 10 cm path length used in extinction coefficient and quantum yield determination). Fluorescence spectra were acquired using a PerkinElmer LS 55 fluorescence spectrophotometer. For measurements containing zinc, 99.0% ZnNO3 hexahydrate (final concentration 5 μM) was used. For experiments analyzing apo probes, N,N,N′,N′-Tetrakis(2-pyridylmethyl)ethylenediamine (TPEN) (final concentration 5 μM) was added to solution. Quantum Yield and Extinction Coefficient Determination. Quantum yields for apo and holo ZincBY-1, ZincBY-2, ZincBY-3, and ZincBY-4 were determined by plotting absorbance vs. fluorescence intensity of solutions containing ZincBY-1, ZincBY-2, ZincBY-3, or ZincBY-4 at probe concentrations ranging from 50-250 nM. Serial dilution was used to make solutions at different concentrations. Fluorescein dissolved in 0.1 N NaOH was used as the quantum yield standard, using a literature-determined quantum yield of 0.95.^3 For all fluorophore solutions, fluorescence excitation was set at 490 nm and fluorescence emission was integrated from 510 nm to 650 nm. Zinc Dissociation Constant. Fluorescence spectra were recorded using zinc probes (ZincBY-1, ZincBY-2, ZincBY-3, or ZincBY-4; 200 nM) and ZnSO4 (various concentrations). The solutions were equilibrated in the dark for 1 h prior to measurement. The concentration of ZnSO4 was varied from 1 μM to 9 mM in buffer solution (50 mM HEPES and 0.1 M KNO3, and pH 7.2) containing 10 mM EGTA. Free Zn^2+ was calculated according to a previously reported method (Ref. B4; incorporated by reference in its entirety). Data was fit to the following one-site binding equation: F=(FminKd+Fmax[Zn^2+])/(Kd+[Zn^2+]) pH Response. The fluorescence spectra of zinc probes (ZincBY-2, ZincBY-3, or ZincBY-4; 200 nM) wasere measured at various pH values (4.5-11). The following buffers were used at 50 mM concentration with 0.1 M KNO3: NaOAc/AcOH (pH 4.0-4.5), MES (pH 5.0-6.5), HEPES (pH 7.0-8.0), CHES (pH 8.5-9.5), CAPS (pH 10.0-11.0). Metal Ion Response. The fluorescence spectra of zinc probes (ZincBY-2, ZincBY-3, or ZincBY-4; 200 nM) were measured in the presence an excess of metal ion including 1 mM KNO3, 1 mM NaNO3, 1 mM CaSO4, 1 mM MgSO4, 15 μM MnSO4, 15 μM (NH4)2Fe(SO4)2, 15 μM NH4Fe(SO4)2, 15 μM CoSO4, 15 μM NiSO4, 15 μM CuSO4, 15 μM [Cu(CH3CN)4]PF6, 15 μM CdSO4, 15 μM Hg(NO3)2, 15 μM Pb(NO3)2, or 15 μM ZnSO4. The fluorescence spectra were compared to that of ZincBY-2 (200 nM), ZincBY-3 (200 nM), or ZincBY-4 (200 nM) in the presence of 10 μM TPEN. Determination of octanol-water partition coefficients (log P). A log P value for each probe was determined by agitating nanomolar solutions of each probe in a 1:1 mixture of HEPES buffer and 1-octanol. Solutions were allowed to settle for 1 h and then the fluorescence intensity of each phase was measured. Standard curves of the fluorescence of known concentrations of probes in both solutions were used to determine concentrations.

[1] = remeasured, same as originally reported, state not specified

Structure (SMILES): COc1ccc2n1[B-](F)(F)[N+]1=C(N(CCN(Cc3ccccn3)Cc3ccccn3)Cc3ccccn3)C=CC1=C2c1c(C)cc(C)cc1C [ZincBY-1, reference compound]
- Brightness (ε*Φ/1000) (Apo): 5.21(72) M^−1cm^−1
- λAbs (max) (Apo (TPEN)): 529 nm
- Extinction Coefficient (ε) (Apo): 2.42(33) × 10^4 M^−1cm^−1
- Quantum Yield (Φ) (Apo): 0.215(5)
- λEm (max) (Apo): 559 nm
- Brightness (ε*Φ/1000) (Zn-bound): 26.97(2.30) M^−1cm^−1
- Extinction Coefficient (ε) (Zn-bound): 4.14(33) × 10^4 M^−1cm^−1
- Quantum Yield (Φ) (Zn-bound): 0.651(18) and 0.651(2)
- λAbs (max) (Zn-bound): 532 nm
- λEm (max) (Zn-bound): 543 nm
- fluorescence turn-on in the presence of zinc: 5.2
- higher brightness on remeasurement compared to the originally reported values (both apo and holo states): 10 fold
- turn-on ratio / increase in brightness in response to zinc: ca. 5 fold
- absorption wavelength [1]: 533 nm
- emission wavelength [1]: 543 nm

Structure (SMILES): Cc1cc(C)c(C2=C3C=CC(OCCN=[N+]=[N-])=[N+]3[B-](F)(F)n3c2ccc3N(CCN(Cc2ccccn2)Cc2ccccn2)Cc2ccccn2)c(C)c1 [ZincBY-2, N1-(7-(2-azidoethoxy)-5,5-difluoro-10-mesityl-5H-4λ4,5λ4-dipyrrolo[1,2-c:2′,1′-f][1,3,2]diazaborinin-3-yl)-N1,N2,N2-tris(pyridin-2-ylmethyl)ethane-1,2-diamine]
- Brightness (ε*Φ/1000) (Apo): 2.35(58) M^−1cm^−1
- λAbs (max) (Apo (TPEN)): 532 nm
- Extinction Coefficient (ε) (Apo): 1.42(35) × 10^4 M^−1cm^−1
- Quantum Yield (Φ) (Apo): 0.164(7)
- λEm (max) (Apo): 566 nm
- Brightness (ε*Φ/1000) (Zn-bound): 13.58(1.93) M^−1cm^−1
- Extinction Coefficient (ε) (Zn-bound): 2.57(35) × 10^4 M^−1cm^−1
- Quantum Yield (Φ) (Zn-bound): 0.529(22)
- λAbs (max) (Zn-bound): 532 nm
- λEm (max) (Zn-bound): 552 nm

Structure (SMILES): Cc1cc(C)c(C2=C3C=CC(OCCN)=[N+]3[B-](F)(F)n3c2ccc3N(CCN(Cc2ccccn2)Cc2ccccn2)Cc2ccccn2)c(C)c1 [ZincBY-3, N1-(7-(2-aminoethoxy)-5,5-difluoro-10-mesityl-5H-4λ4,5λ4-dipyrrolo[1,2-c:2′,1′-f][1,3,2]diazaborinin-3-yl)-N1,N2,N2-tris(pyridin-2-ylmethyl)ethane-1,2-diamine]
- Brightness (ε*Φ/1000) (Apo): 1.85(8) M^−1cm^−1
- λAbs (max) (Apo (TPEN)): 571 nm
- Extinction Coefficient (ε) (Apo): 1.16(4) × 10^4 M^−1cm^−1
- Quantum Yield (Φ) (Apo): 0.158(3)
- λEm (max) (Apo): 585 nm
- Brightness (ε*Φ/1000) (Zn-bound): 12.42(36) M^−1cm^−1
- Extinction Coefficient (ε) (Zn-bound): 2.21(5) × 10^4 M^−1cm^−1
- Quantum Yield (Φ) (Zn-bound): 0.562(11)
- λAbs (max) (Zn-bound): 482 nm
- λEm (max) (Zn-bound): 537 nm

Structure (SMILES): CC(=O)NCCOc1ccc2n1[B-](F)(F)[N+]1=C(N(CCN(Cc3ccccn3)Cc3ccccn3)Cc3ccccn3)C=CC1=C2c1c(C)cc(C)cc1C [ZincBY-4, N-(2-((7-((2-(bis(pyridin-2-ylmethyl)amino)ethyl)(pyridin-2-ylmethyl)amino)-5,5-difluoro-10-mesityl-5H-5λ4,6λ4-dipyrrolo[1,2-c:2′,1′-f][1,3,2]diazaborinin-3-yl)oxy)ethyl)acetamide]
- Brightness (ε*Φ/1000) (Apo): 1.44(7) M^−1cm^−1
- λAbs (max) (Apo (TPEN)): 572 nm
- Extinction Coefficient (ε) (Apo): 0.88(4) × 10^4 M^−1cm^−1
- λEm (max) (Apo): 585 nm
- Brightness (ε*Φ/1000) (Zn-bound): 12.15(34) M^−1cm^−1
- Extinction Coefficient (ε) (Zn-bound): 2.12(4) × 10^4 M^−1cm^−1
- λAbs (max) (Zn-bound): 482 nm
- λEm (max) (Zn-bound): 537 nm
- absorption peaks (apo form): 482 nm and 570 nm
- quantum yield lower compared to ZincBY-1 (apo form): 5%
- fluorescence turn-on in the presence of zinc: 8.4
- quantum yield lower compared to ZincBY-1 (holo form): 10%
- turn-on ratio / increase in brightness in response to zinc: 8 fold

Source: patent US11953435B2, “Zinc-responsive fluorophores” (Northwestern University, priority 2019, dated 2024)
